Measured values as given in paper PMC4997316, “A ruthenium polypyridyl intercalator stalls DNA replication forks, radiosensitizes human cancer cells and is enhanced by Chk1 inhibition” (Scientific Reports, 2016).

How the values were obtained:
[1] = system: primary human foreskin fibroblasts (HFF); test: MTT proliferation assay, HFF; format: cell-based; settings: 24 h proliferation assay
Procedure: (§1) (LC3 = Microtubule-associated protein light chain 3) (Fig. 2b, bottom).
(§2) Cells were seeded in 96 well plates at 20,000 cells/well, allowed to proliferate for 24 h before treatment as described in the main text. 0.5 mg ml^−1 MTT (thiazolyl blue tetrazolium bromide) dissolved in serum-free media was added for 60 minutes and the formazan product eluted using acidified isopropanol. The absorbance at 540 nm was quantified by plate reader (reference wavelength 650 nm). The metabolic activity of the cell population was determined as a percentage of a negative (solvent) control.

[2] = system: replication forks in HeLa cells; test: DNA fibre assay (replication fork progression); format: cell-based, human; settings: for median IdU tract length: 40 μM added during 30 min IdU pulse, mock 6.10 μm
Procedure: Replication tracks were sequentially pulse-labelled with CldU (red) and IdU (green) and the addition of 1 or 2 during the second (IdU) pulse enabled us to evaluate the immediate effect of each complex on individual replication fork progression in S phase cells (Figs 3a and S12).
DNA fibre assays and immunofluorescent staining were performed as described elsewhere, employing sequential CldU and IdU incubation times of 30 mins each. The second nucleotide (IdU) was incubated in the presence of 1, 2 (40 μM) or a DMSO (0.5%) control. Fibres were visualised with a Leica DMRB microscope with a DFC360FX camera. Lengths of CldU- and IdU-labeled tracts were measured by ImageJ software. Statistical analysis was performed using GraphPad Prism software using unpaired t-test.

γH2AX in HeLa cells = test: γH2AX expression after irradiation (Western blot densitometry); format: cell-based, human; settings: 40 μM 20 h then 6 Gy IR, harvested 1 h after irradiation
Procedure: Chemotherapeutics are often used in combination with external beam ionising radiation in the treatment of cancers and many drugs that inhibit DNA replication are potent radiosensitizers. To examine the possibility that 1 may function as a radiosensitizer, HeLa cells were pre-treated with 1 for 20 h before irradiation (0–6 Gy ionising irradiation (IR); ^137Cs-γ-rays; dose rate = 0.809 Gy min^−1). After further incubation for 4 h with the complex, the relative impact on cell viability was assessed by clonogenic survival. Complex 2, which achieves its impact on cell proliferation through non-DNA damage-based autophagy, was included in parallel for comparison. […] The formation of γH2AX is an early response to IR-induced DSB generation and may provide an indication of DNA damage levels. […]
Figure 6 [Ru(dppz)2(PIP)]^2+ sensitises human cancer cells to external beam ionising radiation. […] Survival fraction (S. F.) as a result of each treatment was determined by clonogenic assay and is presented as the mean +/− SD of two independent experiments where each experiment was performed in triplicate. […] Cells were harvested 1 h after irradiation and lysates analysed by Western blotting (left). γH2AX levels were measured by densitometry relative to β-actin loading controls and normalised to DMSO + 6 Gy data (right). […]

HeLa cells = test: irradiation and clonogenic survival assay; format: cell-based, human; settings: for DEF (dose enhancement factor): LD10 [without complex]/LD10 [with complex]; for Radiosensitivity (AUC): area under the survival curve, DMSO 3.83; for LD10: from regression of survival curves, DMSO 6.7; for radiation enhancement ratio (RER): radiosensitivity [without complex]/radiosensitivity [with complex]
Procedure: Chemotherapeutics are often used in combination with external beam ionising radiation in the treatment of cancers and many drugs that inhibit DNA replication are potent radiosensitizers. To examine the possibility that 1 may function as a radiosensitizer, HeLa cells were pre-treated with 1 for 20 h before irradiation (0–6 Gy ionising irradiation (IR); ^137Cs-γ-rays; dose rate = 0.809 Gy min^−1). After further incubation for 4 h with the complex, the relative impact on cell viability was assessed by clonogenic survival. Complex 2, which achieves its impact on cell proliferation through non-DNA damage-based autophagy, was included in parallel for comparison. […] The formation of γH2AX is an early response to IR-induced DSB generation and may provide an indication of DNA damage levels. […] These findings indicate increased levels of DNA damage at an early time point accompany the enhanced radiation-induced cell killing in HeLa cells radiosensitised by 1.
HeLa cells were pre-treated with DMSO, 1 or 2 for 20 h and irradiated using a ^137Cs γ-irradiator (IBL637, CIS Bio Int.; dose rate = 0.809 Gy min^−1). Solutions were removed 4 h after irradiation; cells detached using Trypsin and re-seeded in 6 well plates at a density of 1000 cells/well (in triplicate). Cells were incubated for 7–10 days after re-seeding to allow colony formation before being fixed with 10% methanol, 10% acetic acid and stained with 0.4% methylene blue. Colonies containing 50 cells or greater were counted using a Gelcount instrument and accompanying software (Oxford Optronix). Plating efficiencies were determined for each treatment condition and normalised to controls to provide the survival fraction. Resultant survival fraction (S.F.) versus radiation dose curves were fitted using a second order polynomial function (R^2 values > 0.99). […]
Table S2. Radiosensitization data for 1 and 2 in HeLa cells.
LD10 (Gy) DEF Radiosensitivity RER
Survival variables LD10 (10 % lethal dose) and radiosensitivity, which is expressed as the area under
the survival curve (AUC), derived from linear regression analyses of survival curves (R 2 values ≥
0.989 for all fits). Dose enhancement factor (DEF) = LD 10 [without complex]/LD10 [with complex].
Radiation enhancement ratio (RER) = radiosensitivity [without complex]/radiosensitivity [with

[3] = octanol/water partition coefficient (Log P)
[4] = system: HeLa cervical cancer cells; test: MTT proliferation assay, HeLa; format: cell-based, human; settings: 24 h proliferation assay
Procedure: as §1, §2

Row | Structure (SMILES) | IC50 [1] | median IdU tract length [2] | stalled replication forks (red tract only), of total replication forks ([2]; 40 μM during IdU pulse, mock 7.5 +/− 1%) | γH2AX levels compared to IR alone (γH2AX in HeLa cells) | decrease in cell survival versus 6 Gy γ-rays alone (HeLa cells; 40 μM plus 6 Gy) | survival fraction (S.F.) with 6 Gy γ-rays (HeLa cells; 40 μM, 20 h before and 4 h after irradiation, 6 Gy alone 21.1 +/− 2%) | survival fraction (S.F.) in the absence of radiation (HeLa cells; 40 μM, 24 h) | DEF (dose enhancement factor) (HeLa cells; 40 μM) | Radiosensitivity (AUC) (HeLa cells; 40 μM) | LD10 (HeLa cells; 40 μM) | radiation enhancement ratio (RER) (HeLa cells; 40 μM) | Log P [3] | IC50 [4] | impact on replication fork progression ([2]; 40 μM during IdU pulse)
1 | [Ru+2].c1ccc(-c2nc3c4cccnc4c4ncccc4c3[nH]2)cc1.c1ccc2nc3c4cccnc4c4ncccc4c3nc2c1.c1ccc2nc3c4cccnc4c4ncccc4c3nc2c1 [Complex 1, [Ru(dppz)2(PIP)]^2+] | > 100 µM | 2.18 μm | 17 +/− 1% | approximately two-fold greater | 6.8 fold | 3.1 +/− 1% | ~ 85% | 1.49 | 2.59 | 4.5 Gy | 1.48 | 0.403 | 38 µM | –
2 | Oc1ccc(-c2nc3c4cccnc4c4ncccc4c3[nH]2)cc1.[Ru+2].c1ccc2nc3c4cccnc4c4ncccc4c3nc2c1.c1ccc2nc3c4cccnc4c4ncccc4c3nc2c1 [Complex 2, [Ru(dppz)2(p-HPIP)]^2+] | > 100 µM | 6.24 μm | – | no such increase in γH2AX expression | – | – | – | 1.14 | 3.39 | 5.9 Gy | 1.13 | 0.076 | 14 µM | negligible impact on replication fork progression
